From patent US20120122860A1, “SOLID FORMS OF SULFONAMIDES AND AMINO ACIDS” (Plexxikon, Inc., priority 2009, published 2012)

Legend:
B-Raf = B-Raf (Homo sapiens, UniProt P15056); experiment: Kinase activity assay, B-Raf; type: biochemical; settings: read-out: activity toward kinase B-Raf, IC50
B-Raf V600E = B-Raf V600E (Homo sapiens, UniProt P15056, V600E); experiment: Kinase activity assay, B-Raf V600E; type: biochemical; settings: read-out: activity toward kinase B-Raf V600E, IC50
Kdr = Kdr (Homo sapiens, UniProt P35968); experiment: Kinase activity assay, Kdr
Src = Src (Homo sapiens, UniProt P12931); experiment: Kinase activity assay, Src
TEC = target: T1, TEC (Homo sapiens, UniProt P42680); experiment: Kinase activity assay, TEC
T1 sequence (P42680 1-631): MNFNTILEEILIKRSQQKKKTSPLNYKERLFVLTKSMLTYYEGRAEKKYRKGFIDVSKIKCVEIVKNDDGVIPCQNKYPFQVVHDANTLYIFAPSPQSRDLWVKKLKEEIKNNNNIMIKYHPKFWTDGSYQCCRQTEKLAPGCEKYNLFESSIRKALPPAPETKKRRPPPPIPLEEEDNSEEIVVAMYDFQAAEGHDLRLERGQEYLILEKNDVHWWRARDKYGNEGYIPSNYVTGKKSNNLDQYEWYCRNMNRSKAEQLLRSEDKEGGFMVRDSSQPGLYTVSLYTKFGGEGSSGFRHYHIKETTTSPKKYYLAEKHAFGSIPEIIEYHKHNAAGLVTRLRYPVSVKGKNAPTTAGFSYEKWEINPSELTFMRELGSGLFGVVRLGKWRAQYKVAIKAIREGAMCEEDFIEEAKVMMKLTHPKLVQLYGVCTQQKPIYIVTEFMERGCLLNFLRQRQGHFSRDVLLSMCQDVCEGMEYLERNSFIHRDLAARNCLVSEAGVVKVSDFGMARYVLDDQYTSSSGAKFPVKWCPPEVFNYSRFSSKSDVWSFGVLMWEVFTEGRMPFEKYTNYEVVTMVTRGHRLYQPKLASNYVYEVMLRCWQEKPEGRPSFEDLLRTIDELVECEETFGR

C-Raf = C-Raf (Homo sapiens, UniProt P04049); experiment: Kinase activity assay, C-Raf
MAP4K4 = MAP4K4 (Homo sapiens, UniProt O95819); experiment: Kinase activity assay, MAP4K4
Fms = Fms (Homo sapiens, UniProt P07333); experiment: Kinase activity assay, Fms
Kit = Kit (Homo sapiens, UniProt P10721); experiment: Kinase activity assay, Kit

Measured: IC50

Fms, sequence (P07333 20-972): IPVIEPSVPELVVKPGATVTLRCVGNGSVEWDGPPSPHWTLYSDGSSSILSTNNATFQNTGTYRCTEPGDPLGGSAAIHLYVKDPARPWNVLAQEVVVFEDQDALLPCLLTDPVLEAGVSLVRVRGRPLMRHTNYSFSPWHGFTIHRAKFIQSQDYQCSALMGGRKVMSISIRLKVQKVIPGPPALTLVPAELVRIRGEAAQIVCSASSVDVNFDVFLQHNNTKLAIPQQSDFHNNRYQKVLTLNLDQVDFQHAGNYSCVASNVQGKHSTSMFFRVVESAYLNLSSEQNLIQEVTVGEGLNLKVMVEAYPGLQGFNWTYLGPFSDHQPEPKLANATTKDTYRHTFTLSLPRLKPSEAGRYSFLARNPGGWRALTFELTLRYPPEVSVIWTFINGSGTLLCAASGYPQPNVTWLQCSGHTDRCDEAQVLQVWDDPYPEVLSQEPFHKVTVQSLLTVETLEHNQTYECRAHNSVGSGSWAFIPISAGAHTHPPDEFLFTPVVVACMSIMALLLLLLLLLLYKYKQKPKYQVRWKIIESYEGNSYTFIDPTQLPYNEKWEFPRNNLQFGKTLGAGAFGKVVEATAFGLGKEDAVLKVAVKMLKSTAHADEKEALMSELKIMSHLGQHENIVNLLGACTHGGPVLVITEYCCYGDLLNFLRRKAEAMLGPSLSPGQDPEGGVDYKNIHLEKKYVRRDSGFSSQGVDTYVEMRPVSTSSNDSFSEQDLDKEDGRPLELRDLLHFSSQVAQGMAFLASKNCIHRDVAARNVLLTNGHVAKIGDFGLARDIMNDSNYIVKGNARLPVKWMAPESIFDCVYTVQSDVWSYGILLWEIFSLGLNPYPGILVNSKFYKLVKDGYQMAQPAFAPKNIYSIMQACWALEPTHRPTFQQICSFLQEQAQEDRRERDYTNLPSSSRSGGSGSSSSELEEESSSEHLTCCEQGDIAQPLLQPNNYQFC
Kdr, sequence (P35968 20-1356): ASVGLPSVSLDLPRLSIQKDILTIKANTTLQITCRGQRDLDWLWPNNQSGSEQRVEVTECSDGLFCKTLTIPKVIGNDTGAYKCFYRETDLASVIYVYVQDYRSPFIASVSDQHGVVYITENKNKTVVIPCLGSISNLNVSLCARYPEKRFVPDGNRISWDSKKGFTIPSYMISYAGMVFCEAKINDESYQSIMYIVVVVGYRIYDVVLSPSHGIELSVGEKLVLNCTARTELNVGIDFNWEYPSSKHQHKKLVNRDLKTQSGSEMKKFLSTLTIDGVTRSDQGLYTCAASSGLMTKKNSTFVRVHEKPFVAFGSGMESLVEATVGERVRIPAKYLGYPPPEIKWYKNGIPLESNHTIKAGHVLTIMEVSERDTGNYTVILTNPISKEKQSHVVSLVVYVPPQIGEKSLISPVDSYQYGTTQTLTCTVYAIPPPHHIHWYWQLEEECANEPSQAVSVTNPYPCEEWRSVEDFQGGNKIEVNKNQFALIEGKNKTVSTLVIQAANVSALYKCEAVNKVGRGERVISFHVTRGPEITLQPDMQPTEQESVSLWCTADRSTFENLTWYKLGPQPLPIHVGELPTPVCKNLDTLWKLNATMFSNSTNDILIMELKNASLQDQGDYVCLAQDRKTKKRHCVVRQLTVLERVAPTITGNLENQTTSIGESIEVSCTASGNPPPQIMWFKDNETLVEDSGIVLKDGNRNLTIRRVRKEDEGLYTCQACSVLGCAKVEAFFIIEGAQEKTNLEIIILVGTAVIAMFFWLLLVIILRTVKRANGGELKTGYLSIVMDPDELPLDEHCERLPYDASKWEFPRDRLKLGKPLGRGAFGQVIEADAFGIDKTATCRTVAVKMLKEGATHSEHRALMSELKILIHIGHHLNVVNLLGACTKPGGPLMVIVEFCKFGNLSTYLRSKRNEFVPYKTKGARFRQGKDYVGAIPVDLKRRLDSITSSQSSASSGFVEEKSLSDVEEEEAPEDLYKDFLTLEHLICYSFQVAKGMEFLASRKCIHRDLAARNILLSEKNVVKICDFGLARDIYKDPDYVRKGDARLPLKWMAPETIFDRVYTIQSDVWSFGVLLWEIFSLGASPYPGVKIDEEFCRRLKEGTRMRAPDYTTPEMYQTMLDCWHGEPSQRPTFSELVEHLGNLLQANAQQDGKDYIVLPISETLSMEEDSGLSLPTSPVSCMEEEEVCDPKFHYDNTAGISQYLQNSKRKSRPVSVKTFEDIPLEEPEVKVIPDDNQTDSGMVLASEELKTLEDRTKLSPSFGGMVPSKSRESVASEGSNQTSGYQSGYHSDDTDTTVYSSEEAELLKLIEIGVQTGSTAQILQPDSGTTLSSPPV
Kit, sequence (P10721 26-976): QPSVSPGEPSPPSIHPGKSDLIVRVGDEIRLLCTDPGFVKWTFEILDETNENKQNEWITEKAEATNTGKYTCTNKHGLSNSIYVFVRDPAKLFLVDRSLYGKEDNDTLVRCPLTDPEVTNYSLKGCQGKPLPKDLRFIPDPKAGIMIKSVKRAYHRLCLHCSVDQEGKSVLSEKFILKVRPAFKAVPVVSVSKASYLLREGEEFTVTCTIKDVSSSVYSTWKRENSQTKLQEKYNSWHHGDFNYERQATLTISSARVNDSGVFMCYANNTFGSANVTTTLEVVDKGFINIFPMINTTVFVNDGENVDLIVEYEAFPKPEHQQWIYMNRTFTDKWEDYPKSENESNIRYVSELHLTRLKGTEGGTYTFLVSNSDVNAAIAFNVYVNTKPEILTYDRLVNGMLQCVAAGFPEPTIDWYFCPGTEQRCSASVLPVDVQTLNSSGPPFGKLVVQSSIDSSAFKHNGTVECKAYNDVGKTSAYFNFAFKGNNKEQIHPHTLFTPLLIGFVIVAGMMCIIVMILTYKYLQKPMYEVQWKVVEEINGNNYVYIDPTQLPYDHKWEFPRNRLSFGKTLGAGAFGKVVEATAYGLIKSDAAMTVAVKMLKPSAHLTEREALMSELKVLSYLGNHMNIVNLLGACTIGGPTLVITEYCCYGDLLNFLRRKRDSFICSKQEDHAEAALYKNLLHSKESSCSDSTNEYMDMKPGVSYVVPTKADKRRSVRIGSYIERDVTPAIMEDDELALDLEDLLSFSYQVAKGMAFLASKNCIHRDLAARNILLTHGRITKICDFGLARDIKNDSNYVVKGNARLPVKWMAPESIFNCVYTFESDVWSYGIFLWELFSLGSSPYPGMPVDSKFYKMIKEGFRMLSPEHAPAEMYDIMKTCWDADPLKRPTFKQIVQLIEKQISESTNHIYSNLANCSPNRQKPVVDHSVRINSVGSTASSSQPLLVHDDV
B-Raf V600E, sequence (P15056 whole entry V600E): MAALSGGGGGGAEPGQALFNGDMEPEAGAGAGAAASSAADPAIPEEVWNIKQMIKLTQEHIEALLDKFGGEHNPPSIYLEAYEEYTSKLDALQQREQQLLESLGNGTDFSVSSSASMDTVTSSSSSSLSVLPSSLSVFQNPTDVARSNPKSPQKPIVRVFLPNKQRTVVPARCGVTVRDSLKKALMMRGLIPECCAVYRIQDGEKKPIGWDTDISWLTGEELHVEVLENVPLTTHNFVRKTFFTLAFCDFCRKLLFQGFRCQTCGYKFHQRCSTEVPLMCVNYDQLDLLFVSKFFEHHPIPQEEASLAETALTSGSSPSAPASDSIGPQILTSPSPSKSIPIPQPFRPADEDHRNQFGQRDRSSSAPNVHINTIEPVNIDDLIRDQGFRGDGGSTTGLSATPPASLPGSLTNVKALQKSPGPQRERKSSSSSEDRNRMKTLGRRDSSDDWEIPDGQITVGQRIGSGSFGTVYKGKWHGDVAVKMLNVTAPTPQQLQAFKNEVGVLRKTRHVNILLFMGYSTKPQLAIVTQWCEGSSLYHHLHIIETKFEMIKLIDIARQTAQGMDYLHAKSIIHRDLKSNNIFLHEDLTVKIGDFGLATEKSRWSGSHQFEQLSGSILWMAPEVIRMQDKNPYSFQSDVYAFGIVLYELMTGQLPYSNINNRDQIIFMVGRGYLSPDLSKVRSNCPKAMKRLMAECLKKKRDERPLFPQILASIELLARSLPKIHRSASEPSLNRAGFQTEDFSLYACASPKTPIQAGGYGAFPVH
C-Raf, sequence (P04049 whole entry): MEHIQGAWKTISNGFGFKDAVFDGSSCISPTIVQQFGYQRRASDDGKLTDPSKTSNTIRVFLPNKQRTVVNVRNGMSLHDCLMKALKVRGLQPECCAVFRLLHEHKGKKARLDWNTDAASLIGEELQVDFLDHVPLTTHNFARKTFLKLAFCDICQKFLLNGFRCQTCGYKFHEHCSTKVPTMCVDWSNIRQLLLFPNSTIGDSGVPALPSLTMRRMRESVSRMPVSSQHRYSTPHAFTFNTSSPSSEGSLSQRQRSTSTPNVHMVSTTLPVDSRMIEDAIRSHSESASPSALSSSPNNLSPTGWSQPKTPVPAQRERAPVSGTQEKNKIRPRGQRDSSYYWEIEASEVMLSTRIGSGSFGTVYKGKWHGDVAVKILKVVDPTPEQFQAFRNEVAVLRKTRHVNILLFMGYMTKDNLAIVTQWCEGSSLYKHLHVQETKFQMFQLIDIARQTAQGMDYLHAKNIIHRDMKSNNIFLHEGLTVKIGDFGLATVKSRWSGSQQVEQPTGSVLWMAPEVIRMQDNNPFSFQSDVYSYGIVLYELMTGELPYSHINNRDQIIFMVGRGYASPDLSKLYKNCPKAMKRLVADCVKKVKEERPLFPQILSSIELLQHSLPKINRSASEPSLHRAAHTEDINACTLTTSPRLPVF
B-Raf, sequence (P15056 whole entry): as the sequence (P15056 whole entry V600E) above, with E600V counted along it

Cc1cnc2[nH]cc(C(=O)c3c(F)ccc(NS(=O)(=O)N(C)C)c3F)c2c1 [P-2382, N,N-dimethylamino-sulfonic acid [2,4-difluoro-3-(5-methyl-1H-pyrrolo[2,3-b]pyridine-3-carbonyl)-phenyl]-amide]
not listed: Fms | Kit
≤ 10 µM: all other assays above

CCCS(=O)(=O)Nc1ccc(F)c(C(=O)c2c[nH]c3ncc(C(=O)OCC)cc23)c1F [P-2207, 3-[2,6-Difluoro-3-(propane-1-sulfonylamino)-benzoyl]-1H-pyrrolo[2,3-b]pyridine-5-carboxylic acid ethyl ester]
not listed: Src | C-Raf | MAP4K4
≤ 10 µM: all other assays above

Cn1cc(-c2cnc3[nH]cc(C(=O)c4cccc(NS(=O)(=O)c5cccc(OC(F)(F)F)c5)c4)c3c2)cn1 [P-2133, N-{3-[5-(1-Methyl-1H-pyrazol-4-yl)-1H-pyrrolo[2,3-b]pyridine-3-carbonyl]-phenyl}-3-trifluoromethoxy-benzenesulfonamide]
≤ 10 µM: B-Raf V600E | Fms | Kdr | Kit | TEC

CCCS(=O)(=O)Nc1cccc(S(=O)(=O)c2c[nH]c3ncc(Cl)cc23)c1 [P-2467, Propane-1-sulfonic acid [3-(5-chloro-1H-pyrrolo[2,3-b]pyridine-3-sulfonyl)-phenyl]-amide]
≤ 10 µM: B-Raf V600E | TEC | C-Raf | MAP4K4

Cn1cc(-c2cnc3[nH]cc(C(=O)c4cccc(NS(=O)(=O)c5ccc(C(F)(F)F)cc5)c4)c3c2)cn1 [P-2135, N-{3-[5-(1-Methyl-1H-pyrazol-4-yl)-1H-pyrrolo[2,3-b]pyridine-3-carbonyl]-phenyl}-4-trifluoromethyl-benzenesulfonamide]
≤ 10 µM: B-Raf V600E | Fms | Kdr | Kit | TEC

O=C(c1cc(NS(=O)(=O)C2CCCCC2)ccc1F)c1c[nH]c2ncccc12 [P-2441, Cyclohexanesulfonic acid [4-fluoro-3-(1H-pyrrolo[2,3-b]pyridine-3-carbonyl)-phenyl]-amide]
≤ 10 µM: Fms | Kit | TEC

O=C(c1cc(NS(=O)(=O)c2cccc(Cl)c2)ccc1F)c1c[nH]c2ncc(Cl)cc12 [P-2111, 3-Chloro-N-[3-(5-chloro-1H-pyrrolo[2,3-b]pyridine-3-carbonyl)-4-fluoro-phenyl]-benzenesulfonamide]
≤ 10 µM: B-Raf V600E | Fms | Kdr | Kit | TEC

Cn1cc(-c2cnc3[nH]cc(C(=O)c4cccc(NS(=O)(=O)c5ccc(OC(F)(F)F)cc5)c4)c3c2)cn1 [P-2132, N-{3-[5-(1-Methyl-1H-pyrazol-4-yl)-1H-pyrrolo[2,3-b]pyridine-3-carbonyl]-phenyl}-4-trifluoromethoxy-benzenesulfonamide]
≤ 10 µM: B-Raf V600E | Fms | Kdr | Kit | TEC

CCC(C)S(=O)(=O)Nc1ccc(F)c(C(=O)c2c[nH]c3ncc(C)cc23)c1F (centres unmarked) [P-2312, Butane-2-sulfonic acid [2,4-difluoro-3-(5-methyl-1H-pyrrolo[2,3-b]pyridine-3-carbonyl)-phenyl]-amide]
not listed: B-Raf | Fms | Kit
≤ 10 µM: all other assays above

O=C(c1cc(NS(=O)(=O)c2cccc(Cl)c2)ccc1F)c1c[nH]c2ncccc12 [P-2118, 3-Chloro-N-[4-fluoro-3-(1H-pyrrolo[2,3-b]pyridine-3-carbonyl)-phenyl]-benzenesulfonamide]
≤ 10 µM: Fms | Kdr | Kit | TEC
